The text below walks through data of patent publication US11021435B2, “Serotonin receptor-targeting compounds and methods” (priority 2014, dated 2021).

In assay [1] the target is T1, human 5-HT7 receptors (5-HT7a) (Homo sapiens, UniProt P34969).
T1 construct: expressed in transfected cells
The assay can be described thus: Radioligand competition binding ([3H]5-CT), HEK293 cells stably expressing human 5-HT7 receptors. As to conditions: for Ki: human 5-HT7a, mean (SEM), at least three independent experiments, read-out: Affinity Ki 5-HT7. The text has this: FIGS. 4A-4C show the effects of 5-FPT are stereospecific. […] Data are expressed as the mean±SEM.
In general terms: Displacement assays read how much labelled ligand stays bound in the presence of the test substance.

Assay [2] concerns the target T2, 5-HT2A (Homo sapiens, UniProt P28223). The assay can be described thus: Functional assay at 5-HT2A, relative to 5-HT. The class given is cell-based. Details: expressed in transfected cells; host or cells: HEK293, transient. As to conditions: for Functional activity at 5-HT2A, in words: no activation stated up to 100 μM.
The target in assay [3] is T3, 5-HT2B (Homo sapiens, UniProt P41595). The assay can be described thus: Binding affinity, HEK293 cells transiently over-expressing human 5-HT2B. Details: expressed in transfected cells; host or cells: HEK293, transient. As to conditions: mean (SEM).
A further assay has as its target T4, human 5-HT7 receptors (Homo sapiens, UniProt P34969).
T4 construct: expressed in transfected cells
The assay can be described thus: Functional assay, 5-HT7 Gs-cAMP signaling, relative to AS-19. The class given is cell-based. As to conditions: for Functional activity at 5-HT7, in words / EC50: Gs-cAMP signaling.

The target in the next assay is T5, dopamine D2 receptor (Homo sapiens, UniProt P14416).
T5 construct: expressed in transfected cells; host or cells: HEK293, transient
The assay can be described thus: Off-target binding affinity, dopamine D2.

For a further assay, the target named is T6, mouse 5-HT2A receptor (Mus musculus, UniProt P35363).
T6 construct: expressed in transfected cells; host or cells: HEK293, transient
The assay can be described thus: Binding affinity, HEK293 cells transiently expressing mouse 5-HT2A. As to conditions: for Ki: mouse, mean (SEM), read-out: Affinity Ki m5-HT2A.

For assay [4], the target named is T7, mouse 5-HT2C receptor (m5-HT2C-VNV) (Mus musculus, UniProt P34968, I157V/I161V).
T7 construct: expressed in transfected cells; host or cells: HEK293, transient
T7 sequence (P34968 33-459 I157V/I161V): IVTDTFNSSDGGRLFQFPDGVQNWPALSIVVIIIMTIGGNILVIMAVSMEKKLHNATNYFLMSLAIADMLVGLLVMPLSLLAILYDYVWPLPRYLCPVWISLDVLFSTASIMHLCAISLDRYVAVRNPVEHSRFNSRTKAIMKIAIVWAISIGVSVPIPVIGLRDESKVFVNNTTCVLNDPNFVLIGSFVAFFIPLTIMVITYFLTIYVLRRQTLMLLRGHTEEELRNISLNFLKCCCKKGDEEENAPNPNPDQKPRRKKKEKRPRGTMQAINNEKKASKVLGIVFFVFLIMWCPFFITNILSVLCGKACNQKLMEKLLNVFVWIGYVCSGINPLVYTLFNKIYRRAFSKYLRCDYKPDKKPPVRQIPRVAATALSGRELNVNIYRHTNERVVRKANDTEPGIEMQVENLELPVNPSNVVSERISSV
The assay can be described thus: Binding affinity, HEK293 cells transiently expressing mouse 5-HT2C. As to conditions: for Ki: mouse m5-HT2C-VNV.

The target in another assay is T8, histamine H1 receptor (Homo sapiens, UniProt P35367).
T8 construct: expressed in transfected cells; host or cells: HEK293, transient
The assay can be described thus: Off-target binding affinity, histamine H1.

In assay [5] the target is T2, 5-HT2A. The assay can be described thus: Binding affinity, HEK293 cells transiently over-expressing human 5-HT2A. Details: expressed in transfected cells; host or cells: HEK293, transient. As to conditions: for Ki: human, mean (SEM).
The subject of the next assay is C57BI/6J mice. The assay can be described thus: DOI-elicited head-twitch response (HTR) in C57BI/6J mice. As to conditions: for DOI-elicited HTR: C57BI/6J mice, 5-FPT up to 5.6 mg/kg, AS-19 10 mg/kg, DPAT 0.5 mg/kg. The text has this: The 5-HT2A receptor is a predominant 5-HT receptor in the cortex, and serves important excitation modulation functions on glutamate pyramidal and GABA neurons.

Assay [6] addresses T3, 5-HT2B. The assay can be described thus: Functional assay at 5-HT2B, relative to 5-HT. The class given is cell-based. Details: expressed in transfected cells; host or cells: HEK293, transient. As to conditions: for Functional activity at 5-HT2B, in words: up to 100 μM.
The next assay has as its target T9, adrenergic α1A receptor (Homo sapiens, UniProt P35348).
T9 construct: expressed in transfected cells; host or cells: HEK293, transient
T9 sequence (P35348 1-466): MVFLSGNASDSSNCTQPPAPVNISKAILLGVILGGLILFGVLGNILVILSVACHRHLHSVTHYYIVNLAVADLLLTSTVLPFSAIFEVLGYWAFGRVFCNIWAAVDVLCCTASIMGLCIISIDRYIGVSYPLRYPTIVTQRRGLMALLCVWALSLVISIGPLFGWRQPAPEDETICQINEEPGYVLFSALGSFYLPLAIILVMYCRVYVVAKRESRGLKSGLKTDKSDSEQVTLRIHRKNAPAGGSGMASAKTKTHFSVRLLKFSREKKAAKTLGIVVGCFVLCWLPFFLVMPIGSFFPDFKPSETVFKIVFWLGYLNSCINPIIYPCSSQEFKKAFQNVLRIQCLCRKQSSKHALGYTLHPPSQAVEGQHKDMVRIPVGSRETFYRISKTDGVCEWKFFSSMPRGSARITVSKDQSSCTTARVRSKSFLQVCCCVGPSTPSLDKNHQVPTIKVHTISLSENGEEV
The assay can be described thus: Off-target binding affinity, adrenergic α1A.

For a further assay, the target named is T10, adrenergic α1B receptor (Homo sapiens, UniProt P35368).
T10 construct: expressed in transfected cells; host or cells: HEK293, transient
T10 sequence (P35368 1-520): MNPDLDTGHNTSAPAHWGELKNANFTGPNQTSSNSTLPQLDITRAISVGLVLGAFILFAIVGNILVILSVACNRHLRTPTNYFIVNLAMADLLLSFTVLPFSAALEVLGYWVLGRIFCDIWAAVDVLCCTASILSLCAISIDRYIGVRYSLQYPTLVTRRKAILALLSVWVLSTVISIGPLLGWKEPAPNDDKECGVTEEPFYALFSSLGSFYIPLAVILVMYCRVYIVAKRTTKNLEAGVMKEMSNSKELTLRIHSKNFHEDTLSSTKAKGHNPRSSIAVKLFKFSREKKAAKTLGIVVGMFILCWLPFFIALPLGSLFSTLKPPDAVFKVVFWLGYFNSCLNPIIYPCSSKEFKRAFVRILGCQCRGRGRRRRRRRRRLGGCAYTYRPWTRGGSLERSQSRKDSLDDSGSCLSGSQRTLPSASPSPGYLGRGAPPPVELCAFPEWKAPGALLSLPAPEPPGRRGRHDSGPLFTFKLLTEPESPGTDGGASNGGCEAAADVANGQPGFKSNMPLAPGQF
The assay can be described thus: Off-target binding affinity, adrenergic α1B.

Where [7] appears, read: % of maximal response relative to AS-19, mean (SEM).

“Also recorded” adds a separate entry of the source.

T6 sequence (P35363 whole entry): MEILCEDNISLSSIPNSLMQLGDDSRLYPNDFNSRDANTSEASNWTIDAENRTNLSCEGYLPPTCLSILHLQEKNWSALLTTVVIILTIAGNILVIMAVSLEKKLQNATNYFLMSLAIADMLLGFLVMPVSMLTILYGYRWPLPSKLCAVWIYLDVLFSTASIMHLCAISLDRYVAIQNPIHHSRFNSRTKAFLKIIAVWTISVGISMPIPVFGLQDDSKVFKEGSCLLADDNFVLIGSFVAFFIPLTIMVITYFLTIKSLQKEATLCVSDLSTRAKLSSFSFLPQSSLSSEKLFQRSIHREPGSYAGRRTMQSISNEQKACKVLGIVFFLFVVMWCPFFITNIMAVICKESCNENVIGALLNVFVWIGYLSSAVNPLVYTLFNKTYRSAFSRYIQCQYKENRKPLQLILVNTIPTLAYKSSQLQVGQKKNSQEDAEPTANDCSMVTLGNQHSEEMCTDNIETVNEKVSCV
T2 sequence (P28223 whole entry): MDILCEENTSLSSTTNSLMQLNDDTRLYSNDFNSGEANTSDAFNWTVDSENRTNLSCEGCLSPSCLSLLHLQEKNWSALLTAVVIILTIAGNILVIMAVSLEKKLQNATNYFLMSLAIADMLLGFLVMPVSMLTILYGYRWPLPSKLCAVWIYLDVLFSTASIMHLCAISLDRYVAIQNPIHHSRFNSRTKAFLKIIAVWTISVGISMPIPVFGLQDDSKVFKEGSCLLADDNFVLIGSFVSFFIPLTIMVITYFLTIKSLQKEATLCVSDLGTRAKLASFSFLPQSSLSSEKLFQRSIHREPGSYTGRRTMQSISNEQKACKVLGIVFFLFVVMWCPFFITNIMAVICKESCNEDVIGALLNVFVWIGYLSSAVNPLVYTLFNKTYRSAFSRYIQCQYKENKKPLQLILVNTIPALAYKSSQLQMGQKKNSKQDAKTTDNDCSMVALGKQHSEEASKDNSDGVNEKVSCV
T3 sequence (P41595 whole entry): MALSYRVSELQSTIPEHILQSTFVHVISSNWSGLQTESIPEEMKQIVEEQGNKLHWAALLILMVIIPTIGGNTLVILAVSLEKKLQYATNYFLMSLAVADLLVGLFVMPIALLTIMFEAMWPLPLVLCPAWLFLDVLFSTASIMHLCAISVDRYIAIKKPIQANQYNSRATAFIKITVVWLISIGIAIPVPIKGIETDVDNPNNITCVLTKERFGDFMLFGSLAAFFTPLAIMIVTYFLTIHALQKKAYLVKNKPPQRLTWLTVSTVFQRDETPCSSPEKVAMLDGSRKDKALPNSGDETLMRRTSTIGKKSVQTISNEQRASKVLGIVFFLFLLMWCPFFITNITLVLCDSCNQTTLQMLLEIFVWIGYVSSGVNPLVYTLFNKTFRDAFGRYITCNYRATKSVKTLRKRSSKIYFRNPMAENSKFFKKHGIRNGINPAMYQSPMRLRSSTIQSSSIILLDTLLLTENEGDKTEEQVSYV
T4 sequence (P34969 1-445 isoform P34969-2): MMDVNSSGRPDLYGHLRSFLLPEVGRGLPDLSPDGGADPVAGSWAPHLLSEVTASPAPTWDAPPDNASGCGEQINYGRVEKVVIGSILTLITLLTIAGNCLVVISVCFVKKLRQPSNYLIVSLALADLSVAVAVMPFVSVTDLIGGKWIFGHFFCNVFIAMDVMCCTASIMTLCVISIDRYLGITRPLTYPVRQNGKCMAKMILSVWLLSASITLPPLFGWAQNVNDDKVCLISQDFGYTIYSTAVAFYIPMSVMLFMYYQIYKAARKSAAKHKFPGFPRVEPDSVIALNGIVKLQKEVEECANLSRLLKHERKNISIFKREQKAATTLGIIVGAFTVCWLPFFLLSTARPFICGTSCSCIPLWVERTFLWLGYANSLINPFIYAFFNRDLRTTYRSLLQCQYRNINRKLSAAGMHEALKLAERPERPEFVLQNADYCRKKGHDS
T1 sequence (P34969 1-445 isoform P34969-2): as above
T8 sequence (P35367 whole entry): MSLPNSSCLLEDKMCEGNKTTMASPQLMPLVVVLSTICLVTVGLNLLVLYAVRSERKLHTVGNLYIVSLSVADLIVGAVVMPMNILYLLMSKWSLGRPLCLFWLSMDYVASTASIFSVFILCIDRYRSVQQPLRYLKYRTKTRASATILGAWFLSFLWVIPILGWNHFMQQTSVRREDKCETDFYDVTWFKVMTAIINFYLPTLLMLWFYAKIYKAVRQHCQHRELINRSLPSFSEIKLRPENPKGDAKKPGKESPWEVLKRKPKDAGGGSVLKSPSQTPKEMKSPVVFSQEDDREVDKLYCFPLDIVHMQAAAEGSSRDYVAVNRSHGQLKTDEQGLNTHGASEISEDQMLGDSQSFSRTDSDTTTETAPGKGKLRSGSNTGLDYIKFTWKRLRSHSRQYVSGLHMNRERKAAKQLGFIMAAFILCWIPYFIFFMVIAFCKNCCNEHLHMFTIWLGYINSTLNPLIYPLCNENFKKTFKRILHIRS
T5 sequence (P14416 whole entry): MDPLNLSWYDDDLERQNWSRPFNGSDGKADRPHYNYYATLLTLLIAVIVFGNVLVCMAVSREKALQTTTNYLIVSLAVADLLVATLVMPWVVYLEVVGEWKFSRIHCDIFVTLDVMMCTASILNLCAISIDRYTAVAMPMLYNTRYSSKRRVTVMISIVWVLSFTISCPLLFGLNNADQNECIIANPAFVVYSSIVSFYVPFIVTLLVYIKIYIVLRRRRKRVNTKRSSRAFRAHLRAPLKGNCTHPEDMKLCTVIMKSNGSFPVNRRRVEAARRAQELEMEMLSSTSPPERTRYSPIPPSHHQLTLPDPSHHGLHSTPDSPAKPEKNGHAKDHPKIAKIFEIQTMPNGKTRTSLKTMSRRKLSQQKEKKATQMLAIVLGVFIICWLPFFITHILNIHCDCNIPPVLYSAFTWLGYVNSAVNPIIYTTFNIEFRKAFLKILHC

As to `CN(C)C1CCc2c(cccc2-c2ccccc2F)C1` (single isomer, unassigned; (+)) [(+)-5-FPT, 5-(2′-fluorophenyl)-N,N-dimethyl-1,2,3,4-tetrahydronaphthalen-2-amine], the inhibitory constant (Ki) (as a rule, a measure of affinity in units of concentration, obtained from inhibition or displacement) is 0.0058 µM in [1]; 0.06 µM on 5-HT2B [3]; more than 1 µM at dopamine D2 receptor; 0.632 µM at mouse 5-HT2A receptor; 0.644 µM in [4] (mean (SEM)); more than 1 µM on histamine H1 receptor. The inhibition constant Ki at 5-HT2A [5] is 0.886 µM; at adrenergic α1A receptor it was more than 10 µM; at adrenergic α1B receptor, more than 10 µM. The “5-HT7 affinity, (+)-enantiomer more potent than (−)-enantiomer” value in [1] (ratio of Ki values) is “about 80 times”. Further, the Emax (commonly the size of the effect at its maximum, as opposed to the concentration needed) at 5-HT2A [2] (% of maximal response relative to 5-HT, mean (SEM)) amounted to 39%; at human 5-HT7 receptors (setting [7]) it was 33%. For the same compound, the EC50 (commonly the concentration at which the effect is half-maximal) worked out at 3.53 µM at 5-HT2A [2] (mean (SEM)) and 0.034 µM at human 5-HT7 receptors (mean (SEM)). At 5-HT2A [2], the “Functional activity at 5-HT2A, in words” value is reported as “very low potency, partial agonist”. Also, on human 5-HT7 receptors, the “Functional activity at 5-HT7, in words” value is “partial agonist”. Also, the “Mouse 5-HT2C versus human 5-HT2C receptor affinity” value in [4] is given as approximately 2.5 times. The “Affinity at 5-HT2A receptors, in words” value on 5-HT2A [5] is “very low”. The “DOI-elicited HTR, compound given 120 min (2 hrs) before testing” value in the assay with C57BI/6J mice (5.6 mg/kg, DOI 1 mg/kg) is given as “remained significant; also recorded: retains efficacy”. Also, the “DOI-elicited HTR, compound given 180 min (3 hrs) before testing” value in the assay with C57BI/6J mice (5.6 mg/kg, DOI 1 mg/kg) is “did not block the DOI HTR”. Further, in the assay with C57BI/6J mice (DOI 1 mg/kg), the “DOI-elicited HTR” value is listed as “dose-dependently attenuated the DOI-elicited HTR; also recorded: significantly attenuated the DOI HTR; also recorded: dose-dependently blocks”. Further, in the assay on C57BI/6J mice (oral gavage 3 mg/kg 10 min prior to subcutaneous 1 mg/kg DOI), the “DOI-elicited HTR after oral administration” value is reported as “significantly attenuated the DOI HTR; also recorded: attenuates the HTR”. The “EC50 5-HT2B” value on 5-HT2B [6] (Inactive = no activation up to 100 μM) is recorded as “Inactive”. In addition, at 5-HT2B [6] (relative to 5-HT, Inactive = no activation up to 100 μM), the “EMAX 5-HT2B” value was “Inactive”. In addition, the “Functional activity at 5-HT2B, in words” value at 5-HT2B [6] is reported as “devoid of 5-HT2B activity”.

On to `CN(C)C1CCc2c(cccc2-c2ccccc2F)C1` (single isomer, unassigned; (-)) [(−)-5-FPT, 5-(2′-fluorophenyl)-N,N-dimethyl-1,2,3,4-tetrahydronaphthalen-2-amine], for which the Ki in assay [1] was 0.46 µM; at 5-HT2B [3] it was 0.684 µM; on dopamine D2 receptor, more than 1 µM; at mouse 5-HT2A receptor it was 0.147 µM; in assay [4] (bound given in μM), more than 1 µM; on histamine H1 receptor, more than 1 µM. Further, the Ki is 0.119 µM at 5-HT2A [5], more than 10 µM on adrenergic α1A receptor and more than 10 µM on adrenergic α1B receptor. The “Functional activity at 5-HT2A, in words” value at 5-HT2A [2] is “did not activate”. For the same compound, the “EMAX 5-HT7” value at human 5-HT7 receptors (setting [7]) is given as 29%. In addition, the “Functional activity at 5-HT7, in words” value at human 5-HT7 receptors is given as “partial agonism; also recorded: low-potency”. At human 5-HT7 receptors (mean (SEM)), this compound gave an EC50 of 0.378 µM. Also, the “5-HT7 functional potency, (−)-enantiomer less potent than (+)-isomer” value at human 5-HT7 receptors (ratio of EC50 values) is listed as “about 11 times”. Besides, the “Higher affinity than (+)-5-FPT at mouse 5-HT2A receptors” value on mouse 5-HT2A receptor is on record as approximately 4 fold. Moreover, the “Higher affinity than (+)-5-FPT at human 5-HT2A receptors” value on 5-HT2A [5] is on record as approximately 8 fold. The “DOI-elicited HTR” value in the assay with C57BI/6J mice (DOI 1 mg/kg) is given as “substantially less efficacious than (+)-5-FPT”. Moreover, the “Functional activity at 5-HT2B, in words” value on 5-HT2B [6] was “did not activate”.
